Test results as given in ChEMBL document CHEMBL3390836, “Mannich- and LedererManasse-based analogues of the natural product S-(+)-curcuphenol as cancer proliferation and migration inhibitors” (Medchemcomm, 2012).

Assays:
Format in all cases: functional
[1] = test system: NCI-H23; experiment: Cytotoxicity against human NCI-H23 cells assessed as cell growth at 10^-4 M after 48 hrs by SRB assay relative to control; details: NCI-H23, 48 h, read-out: Activity
[2] = Cytotoxicity against human HCT15 cells assessed as cell growth at 10^-4 M after 48 hrs by SRB assay relative to control; details: HCT-15, 48 h, read-out: Activity
[3] = test system: SW-620; experiment: Cytotoxicity against human SW620 cells assessed as cell growth at 10^-4 M after 48 hrs by SRB assay relative to control; details: SW-620, 48 h, read-out: Activity
[4] = test system: Malme-3M; experiment: Cytotoxicity against human MALME-3M cells after 48 hrs by SRB assay; details: for CC50: read-out: LC50 (the source's name)
[5] = test system: SK-MEL-28; experiment: Cytotoxicity against human SK-MEL-28 cells after 48 hrs by SRB assay; details: SK-MEL-28, 48 h; for CC50: read-out: LC50 (the source's name)
[6] = Cytotoxicity against human OVCAR3 cells after 48 hrs by SRB assay; details: OVCAR-3, 48 h
[7] = test system: 786-0; experiment: Cytotoxicity against human 786-0 cells after 48 hrs by SRB assay; details: 786-0, 48 h
[8] = test system: A498; experiment: Cytotoxicity against human A498 cells after 48 hrs by SRB assay; details: A498, 48 h; for CC50: read-out: LC50 (the source's name)
[9] = test system: CAKI-1; experiment: Cytotoxicity against human Caki1 cells after 48 hrs by SRB assay; details: CAKI-1, 48 h; for CC50: read-out: LC50 (the source's name)
[10] = test system: TK-10; experiment: Cytotoxicity against human TK10 cells after 48 hrs by SRB assay; details: TK-10, 48 h
[11] = test system: SNB-19; experiment: Cytotoxicity against human SNB19 cells assessed as cell growth at 10^-4 M after 48 hrs by SRB assay relative to control; details: SNB-19, 48 h, read-out: Activity
[12] = test system: Malme-3M; experiment: Cytotoxicity against human MALME-3M cells assessed as cell growth at 10^-4 M after 48 hrs by SRB assay relative to control; details: read-out: Activity
[13] = Cytotoxicity against human PC3 cells after 48 hrs by SRB assay; details: PC-3, 48 h
[14] = test system: NCI-H23; experiment: Cytotoxicity against human NCI-H23 cells assessed as cell growth at 10^-8 M after 48 hrs by SRB assay relative to control; details: NCI-H23, 48 h, read-out: Activity
[15] = test system: SF-268; experiment: Cytotoxicity against human SF268 cells assessed as cell growth at 10^-8 M after 48 hrs by SRB assay relative to control; details: SF-268, 48 h, read-out: Activity
[16] = Cytotoxicity against human UACC62 cells assessed as cell growth at 10^-4 M after 48 hrs by SRB assay relative to control; details: UACC-62, 48 h, read-out: Activity
[17] = Cytotoxicity against human OVCAR4 cells assessed as cell growth at 10^-4 M after 48 hrs by SRB assay relative to control; details: OVCAR-4, 48 h, read-out: Activity
[18] = Cytotoxicity against human OVCAR5 cells assessed as cell growth at 10^-4 M after 48 hrs by SRB assay relative to control; details: OVCAR-5, 48 h, read-out: Activity
[19] = test system: 786-0; experiment: Cytotoxicity against human 786-0 cells assessed as cell growth at 10^-4 M after 48 hrs by SRB assay relative to control; details: 786-0, 48 h, read-out: Activity
[20] = test system: CAKI-1; experiment: Cytotoxicity against human Caki1 cells assessed as cell growth at 10^-4 M after 48 hrs by SRB assay relative to control; details: CAKI-1, 48 h, read-out: Activity
[21] = test system: MDA-MB-468; experiment: Cytotoxicity against human MDA-MB-468 cells assessed as cell growth at 10^-4 M after 48 hrs by SRB assay relative to control; details: MDA-MB-468, 48 h, read-out: Activity
[22] = test system: A549; experiment: Cytotoxicity against human A549 cells assessed as cell growth at 10^-7 M after 48 hrs by SRB assay relative to control; details: A549, 48 h, read-out: Activity
[23] = Cytotoxicity against human HCT15 cells assessed as cell growth at 10^-7 M after 48 hrs by SRB assay relative to control; details: HCT-15, 48 h, read-out: Activity
[24] = test system: LOX IMVI; experiment: Cytotoxicity against human LOXIMVI cells assessed as cell growth at 10^-7 M after 48 hrs by SRB assay relative to control; details: read-out: Activity
[25] = Cytotoxicity against human EKVX cells after 48 hrs by SRB assay
[26] = test system: NCI-H226; experiment: Cytotoxicity against human NCI-H226 cells after 48 hrs by SRB assay; details: NCI-H226, 48 h
[27] = test system: NCI-H322M; experiment: Cytotoxicity against human NCI-H322M cells after 48 hrs by SRB assay
[28] = test system: SW-620; experiment: Cytotoxicity against human SW620 cells after 48 hrs by SRB assay; details: SW-620, 48 h; for CC50: read-out: LC50 (the source's name)
[29] = test system: SK-MEL-5; experiment: Cytotoxicity against human SK-MEL-5 cells assessed as cell growth at 10^-7 M after 48 hrs by SRB assay relative to control; details: SK-MEL-5, 48 h, read-out: Activity
[30] = test system: RXF 393; experiment: Cytotoxicity against human RXF393 cells assessed as cell growth at 10^-7 M after 48 hrs by SRB assay relative to control; details: RXF 393, 48 h, read-out: Activity
[31] = test system: T47D; experiment: Cytotoxicity against human T47D cells assessed as cell growth at 10^-7 M after 48 hrs by SRB assay relative to control; details: read-out: Activity
[32] = test system: NCI-H322M; experiment: Cytotoxicity against human NCI-H322M cells assessed as cell growth at 10^-6 M after 48 hrs by SRB assay relative to control; details: read-out: Activity
[33] = Cytotoxicity against human OVCAR8 cells assessed as cell growth at 10^-6 M after 48 hrs by SRB assay relative to control; details: OVCAR-8, 48 h, read-out: Activity
[34] = test system: CAKI-1; experiment: Cytotoxicity against human Caki1 cells assessed as cell growth at 10^-6 M after 48 hrs by SRB assay relative to control; details: CAKI-1, 48 h, read-out: Activity
[35] = Cytotoxicity against human UO31 cells assessed as cell growth at 10^-6 M after 48 hrs by SRB assay relative to control; details: UO-31, 48 h, read-out: Activity
[36] = test system: T47D; experiment: Cytotoxicity against human T47D cells assessed as cell growth at 10^-6 M after 48 hrs by SRB assay relative to control; details: read-out: Activity

## COc1ccc(CCN2COc3c([C@@H](C)CCC=C(C)C)ccc(C)c3C2)cc1OC
[1]
  growth at 100 µM: -92%
[2]
  growth at 100 µM: -87%
[3]
  growth at 100 µM: -86%
[4]
  GI50: 1.53 µM
  TGI: 3.18 µM
  CC50: 6.61 µM
[5]
  GI50: 2.21 µM
  TGI: 4.94 µM
  CC50: 13.3 µM
[6]
  GI50: 3.55 µM
  LC50: 40.1 µM
  TGI: 14.1 µM
[7]
  LC50: 8.72 µM
[8]
  GI50: 1.96 µM
  TGI: 11.9 µM
  CC50: 37.1 µM
[9]
  GI50: 2.73 µM
  TGI: 12.1 µM
  CC50: 41.3 µM
[10]
  GI50: 2.19 µM
  LC50: 24.6 µM
  TGI: 5.95 µM
[11]
  growth at 100 µM: -33%
[12]
  growth at 100 µM: -88%
[13]
  GI50: 1.95 µM
  LC50: 49.3 µM
  TGI: 5.83 µM
[14]
  growth at 0.01 µM: 97%
[15]
  growth at 0.01 µM: 85%
[16]
  growth at 100 µM: -99%
[17]
  growth at 100 µM: -45%
[18]
  growth at 100 µM: -100%
[19]
  growth at 100 µM: -100%
[20]
  growth at 100 µM: -86%
[21]
  growth at 100 µM: -92%
[22]
  growth at 0.1 µM: 96%
[23]
  growth at 0.1 µM: 86%
[24]
  growth at 0.1 µM: 84%
[25]
  GI50: 5.14 µM
  LC50: > 100 µM
  TGI: 25.4 µM
[26]
  GI50: 8.64 µM
  LC50: 49.1 µM
  TGI: 21.6 µM
[27]
  GI50: 3.03 µM
  LC50: 55.7 µM
  TGI: 11.6 µM
[28]
  GI50: 1.91 µM
  TGI: 4.08 µM
  CC50: 8.72 µM
[29]
  growth at 0.1 µM: 91%
[30]
  growth at 0.1 µM: 88%
[31]
  growth at 0.1 µM: 69%
[32]
  growth at 1 µM: 92%
[33]
  growth at 1 µM: 94%
[34]
  growth at 1 µM: 83%
[35]
  growth at 1 µM: 76%
[36]
  growth at 1 µM: 88%

## CC(C)=CCC[C@H](C)c1ccc(C)c(CNCC2CCNCC2)c1O
[1]
  growth at 100 µM: 54%
[2]
  growth at 100 µM: -11%
[3]
  growth at 100 µM: -82%
[4]
  GI50: 4.5 µM
  TGI: 9.68 µM
  CC50: 20.8 µM
[5]
  GI50: 4.2 µM
  TGI: 7.89 µM
  CC50: 14.8 µM
[6]
  GI50: 8.44 µM
  LC50: > 25 µM
  TGI: > 25 µM
[7]
  GI50: 5.01 µM
  LC50: > 25 µM
  TGI: 11.5 µM
[8]
  GI50: 12.1 µM
  TGI: > 25 µM
  CC50: > 25 µM
[9]
  GI50: 4.62 µM
  TGI: 13.4 µM
  CC50: > 25 µM
[10]
  GI50: 0.0551 µM
  LC50: > 25 µM
  TGI: 17.8 µM
[11]
  growth at 100 µM: 21%
[12]
  growth at 100 µM: -62%
[13]
  GI50: 6.88 µM
  LC50: > 25 µM
  TGI: > 25 µM
[14]
  growth at 0.01 µM: 94%
[15]
  growth at 0.01 µM: 97%
[16]
  growth at 100 µM: -81%
[17]
  growth at 100 µM: 44%
[18]
  growth at 100 µM: 27%
[19]
  growth at 100 µM: -47%
[20]
  growth at 100 µM: -29%
[21]
  growth at 100 µM: -90%
[22]
  growth at 0.1 µM: 98%
[23]
  growth at 0.1 µM: 100%
[24]
  growth at 0.1 µM: 95%
[25]
  GI50: 8.56 µM
  LC50: > 25 µM
  TGI: > 25 µM
[26]
  GI50: 10.4 µM
  LC50: > 25 µM
  TGI: > 25 µM
[27]
  GI50: 7.02 µM
  LC50: > 25 µM
  TGI: > 25 µM
[28]
  GI50: 4.11 µM
  TGI: 8.14 µM
  CC50: 16.1 µM
[29]
  growth at 0.1 µM: 90%
[30]
  growth at 0.1 µM: 85%
[31]
  growth at 0.1 µM: 100%
[32]
  growth at 1 µM: 99%
[33]
  growth at 1 µM: 100%
[34]
  growth at 1 µM: 89%
[35]
  growth at 1 µM: 84%
[36]
  growth at 1 µM: 84%
